According to US20260250251A1, “HETEROCYCLIC COMPOUNDS AS PI3Ka INHIBITORS” (Pikavation Therapeutics, Inc., priority 2022, published 2026):

Tests used:
[1] = test system: T47D (PIK3CA H1047R) cells, pSer473 AKT; assay: pS473 AKT assay in T47D cells; assay type: cell-based; details: Homo sapiens, treated 2 h, read-out: T47D_IC50
Protocol: (§1) SKBR3 (PIK3CA WT), MCF7 (PIK3CA E545K), and T47D (PIK3CA H1047R) cells were cultured using 10-cm petri dishes with recommended medium. One day before the assay, cells were seeded in 96-well plates. After overnight incubation, cells were treated with different concentrations of PI3Kα inhibitors for 2 h. Cells were then fixed using 4% paraformaldehyde at room temperature for 20 min. Cells were aspirated with 4% paraformaldehyde, and washed using 1× regular phosphate buffered saline 3 times, 5 min each. Any residual phosphate buffered saline was aspirated and cells were blocked using 10% goat serum containing 1% bovine serum albumin and 0.3% Triton X-100 at room temperature for 1 h. Without any additional washing, primary antibodies (rabbit anti-pSer473 AKT) were diluted using blocking buffer and added at a final volume of 50 microliter per well. Assay plates with primary antibodies were maintained overnight at 4° C. Cells were washed using 1× regular phosphate buffered saline 3 times, 5 min each. After the final wash, cells were incubated with horseradish peroxidase-conjugated secondary antibodies (goat Anti-rabbit IgG) and diluted using the same blocking buffer at room temperature for 1 h. Cells were then washed thoroughly using 1× regular phosphate buffered saline 3 times, 5 min each, and any residual phosphate buffered saline was aspirated. Super-Signal ELISA Pico Chemiluminescent Substrate was then added at a final volume of 100 microliter per well. Plates were read on a i3x Multi-Mode Microplate Reader and IC50 values calculated using GraphPad Prism software.
(§2) Results of the assay described above are presented in Table A. “++++” indicates an IC50 less than 1000 nM; “+++” indicates an IC50 greater than or equal to 1000 nM but less than 5000 nM; “++” indicates an IC50 greater than or equal to 5000 nM but less than 10000 nM; and “+” indicates an IC50 greater than or equal to 10000 nM.

[2] = test system: SKBR3 (PIK3CA WT) cells, pSer473 AKT; assay: pS473 AKT assay in SKBR3 cells; assay type: cell-based; details: Homo sapiens, SK-BR-3, treated 2 h, read-out: SKBR3_IC50
Protocol: as §1, §2

Structure (SMILES) | IC50 [1] | IC50 [2]
Cn1nc(N)c2c(Oc3cc(F)ccc3Cl)c(NC(=O)c3cc(F)cc(C(F)(F)F)c3)cc(CCc3ccccn3)c21 [Example 77, N-(3-Amino-4-(2-chloro-5-fluorophenoxy)-1-methyl-7-(2-(pyridin-2-yl)ethyl)-1H-indazol-5-yl)-3-fluoro-5-(trifluoromethyl)benzamide] | < 1000 nM | 1000 to 5000 nM
Cn1nc(N)c2c(Oc3cc(F)ccc3Cl)c(NC(=O)c3csc4ccccc34)cc(Cl)c21 [Example 63, N-(3-Amino-7-chloro-4-(2-chloro-5-fluorophenoxy)-1-methyl-1H-indazol-5-yl)benzo[b]thiophene-3-carboxamide] | < 1000 nM | 1000 to 5000 nM
Cn1nc(N)c2c(Oc3cc(F)ccc3Cl)c(NC(=O)c3cc(F)cc(C(F)(F)F)c3)cc(N3CCn4ncnc4C3)c21 [Example 55, N-(3-Amino-4-(2-chloro-5-fluorophenoxy)-7-(5,6-dihydro-[1,2,4]triazolo[1,5-a]pyrazin-7(8H)-yl)-1-methyl-1H-indazol-5-yl)-3-fluoro-5-(trifluoromethyl)benzamide] | < 1000 nM | 1000 to 5000 nM
Cn1nc(N)c2c(Oc3cc(F)ccc3Cl)c(NC(=O)c3cc(F)cc(C(F)(F)F)c3)cc(C#Cc3ccccn3)c21 [Example 37, N-(3-Amino-4-(2-chloro-5-fluorophenoxy)-1-methyl-7-(pyridin-2-ylethynyl)-1H-indazol-5-yl)-3-fluoro-5-(trifluoromethyl)benzamide] | < 1000 nM | 1000 to 5000 nM
Nc1n[nH]c2ccc(NC(=O)c3cc(F)cc(C(F)(F)F)c3)c(Oc3cc(F)ccc3Cl)c12 [Example 1, N-(3-Amino-4-(2-chloro-5-fluorophenoxy)-1H-indazol-5-yl)-3-fluoro-5-(trifluoromethyl)benzamide] | < 1000 nM | < 1000 nM
CC(=O)N1CCCCC1C#Cc1cc(NC(=O)c2cc(F)cc(C(F)(F)F)c2)c(Oc2cc(F)ccc2Cl)c2c(N)nn(C)c12 (stereo not drawn) [Example 79, N-(7-((1-Acetylpiperidin-2-yl)ethynyl)-3-amino-4-(2-chloro-5-fluorophenoxy)-1-methyl-1H-indazol-5-yl)-3-fluoro-5-(trifluoromethyl)benzamide] | < 1000 nM | 1000 to 5000 nM
Cn1nc(N)c2c(Oc3cc(F)ccc3Cl)c(NC(=O)c3cc(F)cc(C(F)(F)F)c3)cc(C#CC(C)(C)N)c21 [Example 40, N-(3-Amino-7-(3-amino-3-methylbut-1-yn-1-yl)-4-(2-chloro-5-fluorophenoxy)-1-methyl-1H-indazol-5-yl)-3-fluoro-5-(trifluoromethyl)benzamide] | < 1000 nM | < 1000 nM
CNc1n[nH]c2ccc(NC(=O)c3cc(F)cc(C(F)(F)F)c3)c(Oc3cc(F)ccc3Cl)c12 [Example 2, N-(4-(2-Chloro-5-fluorophenoxy)-3-(methylamino)-1H-indazol-5-yl)-3-fluoro-5-(trifluoromethyl)benzamide] | < 1000 nM | 1000 to 5000 nM
Cn1nc(N)c2c(Oc3cc(F)ccc3Cl)c(NC(=O)c3cccc(C(F)(F)F)c3)cc(Cl)c21 [Example 61, N-(3-Amino-7-chloro-4-(2-chloro-5-fluorophenoxy)-1-methyl-1H-indazol-5-yl)-3-(trifluoromethyl)benzamide] | < 1000 nM | 5000 to 10000 nM
Cn1nccc1-c1cc(NC(=O)c2cc(F)cc(C(F)(F)F)c2)c(Oc2cc(F)ccc2Cl)c2c(N)n[nH]c12 [Example 15, N-(3-Amino-4-(2-chloro-5-fluorophenoxy)-7-(1-methyl-1H-pyrazol-5-yl)-1H-indazol-5-yl)-3-fluoro-5-(trifluoromethyl)benzamide] | < 1000 nM | < 1000 nM
CN1CCC(C#Cc2cc(NC(=O)c3cc(F)cc(C(F)(F)F)c3)c(Oc3cc(F)ccc3Cl)c3c(N)nn(C)c23)CC1 [Example 51, N-(3-Amino-4-(2-chloro-5-fluorophenoxy)-1-methyl-7-((1-methylpiperidin-4-yl)ethynyl)-1H-indazol-5-yl)-3-fluoro-5-(trifluoromethyl)benzamide] | < 1000 nM | ≥ 10000 nM
Nc1n[nH]c2ccc(NC(=O)c3cc(F)cc(C(F)(F)F)c3)c(Nc3cc(F)ccc3Cl)c12 [Example 4, N-(3-Amino-4-((2-chloro-5-fluorophenyl)amino)-1H-indazol-5-yl)-3-fluoro-5-(trifluoromethyl)benzamide] | < 1000 nM | 5000 to 10000 nM
Cn1nc(NC(=O)CN)c2c(Oc3cc(F)ccc3Cl)c(NC(=O)c3cc(F)cc(C(F)(F)F)c3)cc(Cl)c21 [Example 35, N-(3-(2-Aminoacetamido)-7-chloro-4-(2-chloro-5-fluorophenoxy)-1-methyl-1H-indazol-5-yl)-3-fluoro-5-(trifluoromethyl)benzamide] | < 1000 nM | 1000 to 5000 nM
Nc1nn2c(=O)c3c(c4cc(NC(=O)c5cc(F)cc(C(F)(F)F)c5)c(Oc5cc(F)ccc5Cl)c1c42)CCC3 [Example 74, N-(4-Amino-3-(2-chloro-5-fluorophenoxy)-7-oxo-7,8,9,10-tetrahydrocyclopenta[c]pyrazolo[4,5,1-ij]quinolin-2-yl)-3-fluoro-5-(trifluoromethyl)benzamide] | < 1000 nM | < 1000 nM
CNC(=O)Cn1nc(N)c2c(Oc3cc(F)ccc3Cl)c(NC(=O)c3cc(F)cc(C(F)(F)F)c3)ccc21 [Example 9, N-(3-Amino-4-(2-chloro-5-fluorophenoxy)-1-(2-(methylamino)-2-oxoethyl)-1H-indazol-5-yl)-3-fluoro-5-(trifluoromethyl)benzamide] | < 1000 nM | 1000 to 5000 nM
CNC(=O)N1CCCCC1C#Cc1cc(NC(=O)c2cc(F)cc(C(F)(F)F)c2)c(Oc2cc(F)ccc2Cl)c2c(N)nn(C)c12 (stereo not drawn) [Example 80, 2-((3-Amino-4-(2-chloro-5-fluorophenoxy)-5-(3-fluoro-5-(trifluoromethyl)benzamido)-1-methyl-1H-indazol-7-yl)ethynyl)-N-methylpiperidine-1-carboxamide] | < 1000 nM | 1000 to 5000 nM
Cn1nc(N)c2c(Oc3cc(F)ccc3Cl)c(NC(=O)c3cc(F)cc(C(F)(F)F)c3)cc(-c3cnn(C4CCOC4)c3)c21 (stereo not drawn) [Example 28, N-(3-Amino-4-(2-chloro-5-fluorophenoxy)-1-methyl-7-(1-(tetrahydrofuran-3-yl)-1H-pyrazol-4-yl)-1H-indazol-5-yl)-3-fluoro-5-(trifluoromethyl)benzamide] | < 1000 nM | < 1000 nM
Nc1nnc2ccc(NC(=O)c3cc(F)cc(C(F)(F)F)c3)c(Oc3cc(F)ccc3Cl)n12 [Example 20, N-(3-Amino-5-(2-chloro-5-fluorophenoxy)-[1,2,4]triazolo[4,3-a]pyridin-6-yl)-3-fluoro-5-(trifluoromethyl)benzamide] | < 1000 nM | 1000 to 5000 nM
CCNC(=O)c1cc(NC(=O)c2cc(F)cc(C(F)(F)F)c2)c(Oc2cc(F)ccc2Cl)c2c(N)nn(C)c12 [Example 65, 3-Amino-4-(2-chloro-5-fluorophenoxy)-N-ethyl-5-(3-fluoro-5-(trifluoromethyl)benzamido)-1-methyl-1H-indazole-7-carboxamide] | < 1000 nM | < 1000 nM
Nc1nn(CC(=O)N2CCOCC2)c2ccc(NC(=O)c3cc(F)cc(C(F)(F)F)c3)c(Oc3cc(F)ccc3Cl)c12 [Example 10, N-(3-Amino-4-(2-chloro-5-fluorophenoxy)-1-(2-morpholino-2-oxoethyl)-1H-indazol-5-yl)-3-fluoro-5-(trifluoromethyl)benzamide] | < 1000 nM | 1000 to 5000 nM
Cn1nc(N)c2c(Oc3cc(F)ccc3Cl)c(NC(=O)c3cc(F)cc(C(F)(F)F)c3)cc(Cl)c21 [Example 24, N-(3-Amino-7-chloro-4-(2-chloro-5-fluorophenoxy)-1-methyl-1H-indazol-5-yl)-3-fluoro-5-(trifluoromethyl)benzamide] | < 1000 nM | < 1000 nM
CC(C)n1cc(-c2cc(NC(=O)c3cc(F)cc(C(F)(F)F)c3)c(Oc3cc(F)ccc3Cl)c3c(N)nn(C)c23)cn1 [Example 26, N-(3-Amino-4-(2-chloro-5-fluorophenoxy)-7-(1-isopropyl-1H-pyrazol-4-yl)-1-methyl-1H-indazol-5-yl)-3-fluoro-5-(trifluoromethyl)benzamide] | < 1000 nM | 1000 to 5000 nM
Cn1nc(N)c2c(Oc3cc(F)ccc3Cl)c(NC(=O)c3cc(F)cc(C(F)(F)F)c3)cc(C#CC3CCOCC3)c21 [Example 38, N-(3-Amino-4-(2-chloro-5-fluorophenoxy)-1-methyl-7-((tetrahydro-2H-pyran-4-yl)ethynyl)-1H-indazol-5-yl)-3-fluoro-5-(trifluoromethyl)benzamide] | < 1000 nM | 1000 to 5000 nM
Nc1n[nH]c2ccc(NC(=O)N3CC(O)(C(F)(F)F)c4cc(F)ccc43)c(Oc3cc(F)ccc3Cl)c12 (stereo not drawn) [Example 19, N-(3-Amino-4-(2-chloro-5-fluorophenoxy)-1H-indazol-5-yl)-5-fluoro-3-hydroxy-3-(trifluoromethyl)indoline-1-carboxamide] | < 1000 nM | 1000 to 5000 nM
